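Interpolation was linear, between the two tested concentrations surrounding the appropriate level; five concentrations were tested over 48 hours in 96-well plates. Abbreviation: GI50, concentration required for 50% inhibition of growth. At the TGI there is no net growth.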
Experiments:
Assay in all cases: growth of human tumour cells (NCI), 48 h
HOP-92 NSCLC = test system: HOP-92 NSCLC
LOX IMVI melanoma = test system: LOX IMVI melanoma
KM12 colon = test system: KM12 colon
HCT-15 colon = test system: HCT-15 colon
NCI-H226 lung = test system: NCI-H226 lung
HT29 colon = test system: HT29 colon
NCI/ADR-RES ovarian = test system: NCI/ADR-RES ovarian
PC-3 prostate = test system: PC-3 prostate
SW-620 colon = test system: SW-620 colon
UO-31 renal = test system: UO-31 renal
MALME-3M melanoma = test system: MALME-3M melanoma

Row | Compound | TGI (HOP-92 NSCLC) [µM] | TGI (LOX IMVI melanoma) [µM] | TGI (KM12 colon) [µM] | TGI (HCT-15 colon) [µM] | TGI (NCI-H226 lung) [µM] | TGI (HT29 colon) [µM] | TGI (NCI/ADR-RES ovarian) [µM] | TGI (PC-3 prostate) [µM] | TGI (SW-620 colon) [µM] | TGI (UO-31 renal) [µM] | GI50 (HOP-92 NSCLC) [µM] | GI50 (KM12 colon) [µM] | GI50 (NCI-H226 lung) [µM] | GI50 (HT29 colon) [µM] | GI50 (NCI/ADR-RES ovarian) [µM] | GI50 (PC-3 prostate) [µM] | GI50 (SW-620 colon) [µM] | GI50 (UO-31 renal) [µM] | TGI (MALME-3M melanoma) [µM]
1 | NC(=S)N/N=C(/C(=O)Nc1nc2ccc([N+](=O)[O-])cc2s1)C1C(=O)NC(=S)NC1=O | > 100 | > 100 | > 100 | > 100 | > 100 | > 100 | > 100 | > 100 | > 100 | > 100 |  |  |  |  |  |  |  |  | 
2 | CCOn1cc(C2=C(c3c[nH]c4ccccc34)C(=O)NC2=O)c2ccccc21 | 38.8 | 25.9 | 2 | 14.8 | 27.4 | 12.8 | < 0.01 | 17.3 | 22.7 | > 47.4 | 23.2 | < 0.0161 | 1.01 | < 0.0224 | < 0.01 | < 0.0389 | < 0.01 | 16.9 | 
3 | N=C(N)C1CN(CC=O)C(=O)NC1=O (stereo unspecified) | > 100 | > 100 |  | > 100 | > 100 | > 100 | > 100 | > 100 | > 100 | > 100 |  |  |  |  |  |  |  |  | > 100
4 | CCOC(=O)/C=C1\Nc2ccccc2-n2nnnc21 | > 100 | > 100 | > 100 | > 100 | > 100 | > 100 |  |  | 58.6 | > 100 |  |  |  |  |  |  |  |  | > 100
5 | C=C(Cl)C(Br)(CBr)CCC(Br)C(C)(C)Br (stereo unspecified) | > 10 |  | > 10 |  | > 10 | > 10 |  | > 10 | 9.33 | > 10 |  |  |  |  |  |  |  |  | 
6 | COc1cc(/C=C2\N=C(c3ccccc3)N(/N=C/c3cc4cc(C)ccc4nc3Cl)C2=O)cc(OC)c1OC | > 100 | > 100 | > 100 | > 100 |  | > 100 | > 100 | 54.7 | > 100 | > 100 |  |  |  |  |  |  |  |  | 
7 | CN(CCO)c1nc2c(c(=O)[nH]1)CNCC2 | > 100 | > 100 | > 100 | > 100 | > 100 | > 100 |  |  | > 100 | > 100 |  |  |  |  |  |  |  |  | > 100
8 | COc1cc(-c2c(C)c(C)nc(OC)c2C#N)cc(OC)c1OC | > 100 |  | > 100 | > 100 | > 100 | > 100 |  |  | > 100 | > 100 |  |  |  |  |  |  |  |  | > 100
9 | C/C(=N/NC(=S)N1CCCC1)c1cccc(/C(C)=N\NC(=S)N2CCCC2)n1 |  | > 100 | 4.46 | 4.96 | 3.76 | 5.1 | 7.62 | 5.36 | 4.33 | 2.11 |  |  |  |  |  |  |  |  | 4.89
10 | COc1cc(CCCC(O)COc2cccc3c2C2(O)CCCCCC32)cc(OC)c1 (stereo unspecified) | 19.9 |  | 34.5 | 34 | 33.9 | 23.9 |  |  | 31.6 | 28.9 |  |  |  |  |  |  |  |  | 31.8
11 | O=S1(=O)OCCCOS(=O)(=O)C1Br |  | > 100 | > 100 | > 100 | > 100 | > 100 | > 100 | > 100 | > 100 | > 100 |  |  |  |  |  |  |  |  | > 100
12 | CCCCc1ccc(N2C(=O)c3cccnc3S2(=O)=O)cc1 | > 100 |  | > 100 | > 100 | > 100 | > 100 | > 100 | > 100 | > 100 | > 100 |  |  |  |  |  |  |  |  | > 100
13 | CN1CCN(C(=S)N(C)C(=O)c2cccs2)CC1 | > 100 | > 100 | > 100 | > 100 | > 100 | > 100 |  |  | > 100 | > 100 |  |  |  |  |  |  |  |  | > 100
14 | O=C(Nc1ccccc1)C(=O)C(C(=O)c1ccccc1)C(c1ccccc1)c1ccccc1 (stereo unspecified) | > 10 | > 10 |  | > 10 |  | > 10 |  | > 10 | > 10 |  |  |  |  |  |  |  |  |  | > 10
15 | COC(=O)[C@]12CSC[C@H]1C[C@H](c1ccc(N(C)C)cc1)N2 | > 100 | > 100 | > 100 | > 100 | > 100 |  | > 100 | > 100 | > 100 | > 100 |  |  |  |  |  |  |  |  | > 100
16 | COC(=O)/C=C(\S/C(=C(/c1ccc(OC)cc1)n1cc(C(=O)OC)c(C(=O)OC)n1)c1ccc(OC)cc1)C(=O)OC |  | 25.4 | > 100 | 37.9 | > 100 | 30.7 | > 100 | > 100 | > 100 | 16 |  |  |  |  |  |  |  |  | 37.1
17 | CSc1ccc(-c2cc(-c3nc4ccccc4[nH]3)nc3[nH]c(-c4nc5ccccc5[nH]4)cc(=O)c23)cc1 | > 100 | > 100 | > 100 | > 100 | > 100 | > 100 | > 100 | > 100 |  | > 100 |  |  |  |  |  |  |  |  | > 100
18 | Nc1ccc(C(=O)NN2C(=O)C(Cl)C2c2ccccc2O)cc1 (stereo unspecified) | > 100 | > 100 | > 100 | > 100 | > 100 | > 100 |  |  | > 100 | 75.2 |  |  |  |  |  |  |  |  | > 100
19 | Cc1nc2ccc(N=NN(C)C)cc2[nH]1 |  | > 100 | > 100 | > 100 | > 100 | > 100 | > 100 | > 100 | > 100 | > 100 |  |  |  |  |  |  |  |  | > 100
20 | C/C(=C/CNc1ncnc2c1ncn2CCC#N)CO | > 100 | > 100 | > 100 |  | > 100 | > 100 | > 100 | > 100 | > 100 | > 100 |  |  |  |  |  |  |  |  | > 100
21 | CCOC(=O)C1C(c2ccc([N+](=O)[O-])cc2)NC(c2ccc([N+](=O)[O-])cc2)C(C(=O)OC)S1(=O)=O (stereo unspecified) |  | > 100 | > 100 | > 100 | > 100 | > 100 |  |  | > 100 | > 100 |  |  |  |  |  |  |  |  | > 100
22 | COc1ccc(-c2cc(-c3ccco3)c(C#N)c(=S)n2C2OC(CO)C(O)C(O)C2O)cc1 (stereo unspecified) |  | > 100 | > 100 | > 100 | > 100 | > 100 | > 100 | > 100 | > 100 | > 100 |  |  |  |  |  |  |  |  | > 100
